Experimental data reported in PMC12286339 (PLOS One, 2025).
Values joined by “and” are separate entries in the source; they are usually repeats but may differ in a detail not shown here. Equal entries are not always repeated.

Key:
[1] = 2nd mouse trial: co-administration with oxacillin, drug in blood, liver, heart and brain; details: 24 h after 30uL IV of Tun 6.7 mg/mL + oxacillin 6.7 mg/mL, individual mice
Procedure: In the second trial, which was a drug co-localization study, forty (20 male and 20 female) C57BL/6 mice were enrolled on Study Day 0 and were dosed according to the experimental design shown in Fig 2A and S3 Table. Body weights and clinical observations were recorded as before. […] Blood samples were taken (50 μL) 5 min, 15 min, 30 min, 1h, 2h, 4h, 6h, and 24h post-injection. At the end of the study (24 h post dose) the mice were euthanized by CO2 asphyxiation, and liver, brain and heart were collected. The organs were homogenized in ethanol, then filtered to remove solids, and the ethanolic filtrate dried by Speedvac evaporation. The dried residues were stored at −80 °C and shipped on dry ice. Drug concentrations in tissue were measured by LC–MS/MS as previously described.

[2] = Pharmacokinetics in blood of C57BL/6 mice, 1st trial (single IV bolus, LC-MS, two-compartment model); assay type: in vivo; details: individual mice, Tun 10 mg/mL 30uL IV
Procedure: Eighty, 40 male (M) and 40 female (F), C57BL/6 mice were enrolled in the study on Day 0. Body weights, clinical observations, and digital caliper measurements were recorded. Eight (4M/4F) animals per treatment received a single 30uL intravenous bolus dose of the experimental samples (or control DMSO carrier) via the lateral tail vein, as shown in Fig 2A and S1 Table. […] After the first dosing, blood draws for the PK study were at 8-time points (5 min, 15 min, 30 min, 1 h, 2 h, 4 h, 6 h, 24 h). The mice were subdivided into 2 groups of 4 (2M/2F) mice each, with each subgroup having ~50 ul of blood collected via retro-orbital bleed for 4-time points (subgroup 1: 5 min, 30 min, 2h, and 6 h; subgroup 2: 15 min, 1h, 4h, and 24 h). In life, a collection of 50 μL of blood was diluted with 450 μL of ethanol and evaporated to dryness on a Speedvac evaporator under sterile conditions. The dried residues were stored at −80 °C and were shipped on dry ice to NCAUR, Peoria, for analysis. At the end of the study (24 h), the animals were euthanized, and terminal blood samples from all mice (100 µL) were collected via cardiac puncture, diluted with 900 μL of ethanol, and evaporated to dryness on a Speedvac. The dried residues are stored at −80 °C until ready for analysis.
For the comparative PK of tunicamycins in blood, drug concentrations were measured by LC–MS/MS as previously described. Different compartmental models (0, 1, or 2 compartments) and weighting options were assessed for goodness of fit by visual inspection of the observed versus predicted plots, weighted residual versus observed and predicted plots, and comparison of Akaike Information Criterion (AICc) values. A two-compartment IV bolus model was determined to describe the data best (S1 Fig).
Pharmacokinetic parameters were calculated by two-compartmental using a linear regression analysis and residuals method to calculate using Microsoft Excel 2024 using standard equations (Atkinson; 2007; Miyamato et al., 2019). Details about the PK equations to calculate drug concentrations and PK parameters are listed in the S1 Appendix.

[3] = in vivo; cited from earlier work
sheep = tested on: sheep; design: method as in earlier work; details: cumulative from multiple smaller doses; cited from earlier work

| Compound | N-acyl variants in brain (2nd trial) [1] | N-acyl variants in heart (2nd trial) [1] | N-acyl variants in liver (2nd trial) [1] | N-acyl variants in blood (1st trial) ([2]; time 0:05:00 (5 min)) | N-acyl variants in blood (1st trial) ([2]; time 0:15:00 (15 min)) | N-acyl variants in blood (1st trial) ([2]; time 0:30:00 (30 min)) | N-acyl variants in blood (1st trial) ([2]; time 1:00:00 (1 h)) | N-acyl variants in blood (1st trial) ([2]; time 2:00:00 (2 h)) | N-acyl variants in blood (1st trial) ([2]; time 4:00:00 (4 h)) | N-acyl variants in blood (1st trial) ([2]; time 6:00:00 (6 h)) | N-acyl variants in blood (1st trial) ([2]; time 24:00:00 (24 h)) | estimated t1/2 [3] | oral lethal dose (sheep) |
| --- | --- | --- | --- | --- | --- | --- | --- | --- | --- | --- | --- | --- | --- |
| CCC(C)CCCCCCCC/C=C/C(=O)N[C@H]1[C@H](O[C@H]2O[C@H](CO)[C@@H](O)[C@H](O)[C@H]2NC(C)=O)O[C@H](C[C@@H](O)[C@H]2O[C@@H](n3ccc(=O)[nH]c3=O)[C@H](O)[C@@H]2O)[C@H](O)[C@@H]1O (some centres unmarked) [C15a] | 0 µg/mL | 0 µg/mL | 0 µg/mL and 0.03337 µg/mL and 0.02831 µg/mL | 0.654 µg/mL and 0.6 µg/mL and 0 µg/mL | 0 ug/mL (3×) and 0.45 ug/mL | 0 µg/mL | 0 µg/mL | 0 µg/mL | 0 µg/mL | 0 µg/mL | 0 µg/mL | – | – |
| CC(=O)N[C@H]1[C@@H](O[C@@H]2O[C@H](C[C@@H](O)[C@H]3O[C@@H](n4ccc(=O)[nH]c4=O)[C@H](O)[C@@H]3O)[C@H](O)[C@H](O)[C@H]2NC(=O)/C=C/CCCCCCCCCC(C)C)O[C@H](CO)[C@@H](O)[C@@H]1O [C15i] | 0 µg/mL | 0 µg/mL | 0 µg/mL and 0.05015 µg/mL and 0.3411 µg/mL and 0.2948 µg/mL | 4.16 µg/mL and 5.09 µg/mL and 2.96 µg/mL | 3.05 µg/mL and 3.14 µg/mL and 1.44 µg/mL and 3.28 µg/mL | 0 ug/mL (2×) and 0.88 ug/mL and 1.74 ug/mL | 0 ug/mL (2×) and 0.77 ug/mL and 1.66 ug/mL | 0 µg/mL | 0 µg/mL | 0 µg/mL | 0 µg/mL | – | – |
| CCCCCCCCCCCCCC/C=C/C(=O)N[C@H]1[C@H](O[C@H]2O[C@H](CO)[C@@H](O)[C@H](O)[C@H]2NC(C)=O)O[C@H](C[C@@H](O)[C@H]2O[C@@H](n3ccc(=O)[nH]c3=O)[C@H](O)[C@@H]2O)[C@H](O)[C@@H]1O [C17s] | 0 µg/mL | 0 µg/mL | 0 µg/mL and 0.1695 µg/mL and 0.1754 µg/mL | 0 µg/mL | 0 µg/mL | 0 µg/mL | 0 µg/mL | 0 µg/mL | 0 µg/mL | 0 µg/mL | 0 µg/mL | – | – |
| Cc1onc(-c2ccccc2)c1C(=O)N[C@@H]1C(=O)N2[C@@H]1SC(C)(C)[C@@H]2C(=O)O [oxacillin] | – | – | – | – | – | – | – | – | – | – | – | 7.8 min | – |
| corynetoxins [Cnx] | – | – | – | – | – | – | – | – | – | – | – | – | 3.2 to 5.6 mg/kg |
